These results are taken from ChEMBL document CHEMBL5357068, “Discovery of Novel TLR7 Agonists as Systemic Agent for Combination With aPD1 for Use in Immuno-oncology” (ACS Med Chem Lett, 2024).

Data set [1] is described as follows: Metabolic stability in mouse liver microsomes assessed as compound remaining. Note: time not given here. Type of data set: ADME, Microsome. On the technique in general: Liver microsomes are a subcellular fraction often used to study metabolism.
Another data set is described as follows: in vitro. The note with it: PHA-activated T cells.
Data set [2] in a line: Metabolic stability in human liver microsomes assessed as compound remaining. Note: time not given here. It is filed as ADME, Microsome.
For data set [3], the target named is Voltage-gated inwardly rectifying potassium channel KCNH2 (Homo sapiens, UniProt Q12809). Description: Inhibition of hERG by patch clamp assay. Type of data set: toxicity. A general note: hERG is a cardiac potassium channel; its block is linked to QT prolongation.
Voltage-gated inwardly rectifying potassium channel KCNH2, sequence (Q12809 whole entry): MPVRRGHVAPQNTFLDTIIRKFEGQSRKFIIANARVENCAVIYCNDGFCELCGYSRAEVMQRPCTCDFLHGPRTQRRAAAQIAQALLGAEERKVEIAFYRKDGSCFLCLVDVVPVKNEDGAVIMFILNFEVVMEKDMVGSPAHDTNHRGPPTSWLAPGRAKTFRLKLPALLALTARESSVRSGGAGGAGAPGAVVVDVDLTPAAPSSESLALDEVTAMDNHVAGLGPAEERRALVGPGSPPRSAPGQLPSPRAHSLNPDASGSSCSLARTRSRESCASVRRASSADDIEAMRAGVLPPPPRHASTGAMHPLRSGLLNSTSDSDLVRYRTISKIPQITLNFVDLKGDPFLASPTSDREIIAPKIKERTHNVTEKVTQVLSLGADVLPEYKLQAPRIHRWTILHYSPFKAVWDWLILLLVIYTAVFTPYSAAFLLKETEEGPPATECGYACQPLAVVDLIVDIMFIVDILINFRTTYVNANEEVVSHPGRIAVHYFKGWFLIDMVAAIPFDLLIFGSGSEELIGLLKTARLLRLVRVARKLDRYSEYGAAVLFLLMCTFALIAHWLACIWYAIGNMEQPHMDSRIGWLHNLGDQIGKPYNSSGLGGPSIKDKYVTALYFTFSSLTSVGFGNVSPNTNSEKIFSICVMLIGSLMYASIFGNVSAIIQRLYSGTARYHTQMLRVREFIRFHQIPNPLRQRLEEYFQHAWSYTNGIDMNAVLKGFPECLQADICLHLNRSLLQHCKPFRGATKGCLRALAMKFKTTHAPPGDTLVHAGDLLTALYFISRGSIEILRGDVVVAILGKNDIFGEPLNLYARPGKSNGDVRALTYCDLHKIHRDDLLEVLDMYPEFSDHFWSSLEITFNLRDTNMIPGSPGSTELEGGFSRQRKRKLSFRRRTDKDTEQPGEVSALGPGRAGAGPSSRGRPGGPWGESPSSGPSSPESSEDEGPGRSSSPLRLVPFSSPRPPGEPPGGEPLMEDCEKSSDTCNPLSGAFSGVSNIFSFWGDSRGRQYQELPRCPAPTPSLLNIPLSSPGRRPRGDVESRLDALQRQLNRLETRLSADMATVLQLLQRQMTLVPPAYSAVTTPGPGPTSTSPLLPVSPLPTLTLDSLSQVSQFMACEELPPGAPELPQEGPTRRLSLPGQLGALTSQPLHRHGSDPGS
For data set [4], the target named is T1, Toll-like receptor 7 (Mus musculus, UniProt P58681).
T1 sequence (P58681 whole entry): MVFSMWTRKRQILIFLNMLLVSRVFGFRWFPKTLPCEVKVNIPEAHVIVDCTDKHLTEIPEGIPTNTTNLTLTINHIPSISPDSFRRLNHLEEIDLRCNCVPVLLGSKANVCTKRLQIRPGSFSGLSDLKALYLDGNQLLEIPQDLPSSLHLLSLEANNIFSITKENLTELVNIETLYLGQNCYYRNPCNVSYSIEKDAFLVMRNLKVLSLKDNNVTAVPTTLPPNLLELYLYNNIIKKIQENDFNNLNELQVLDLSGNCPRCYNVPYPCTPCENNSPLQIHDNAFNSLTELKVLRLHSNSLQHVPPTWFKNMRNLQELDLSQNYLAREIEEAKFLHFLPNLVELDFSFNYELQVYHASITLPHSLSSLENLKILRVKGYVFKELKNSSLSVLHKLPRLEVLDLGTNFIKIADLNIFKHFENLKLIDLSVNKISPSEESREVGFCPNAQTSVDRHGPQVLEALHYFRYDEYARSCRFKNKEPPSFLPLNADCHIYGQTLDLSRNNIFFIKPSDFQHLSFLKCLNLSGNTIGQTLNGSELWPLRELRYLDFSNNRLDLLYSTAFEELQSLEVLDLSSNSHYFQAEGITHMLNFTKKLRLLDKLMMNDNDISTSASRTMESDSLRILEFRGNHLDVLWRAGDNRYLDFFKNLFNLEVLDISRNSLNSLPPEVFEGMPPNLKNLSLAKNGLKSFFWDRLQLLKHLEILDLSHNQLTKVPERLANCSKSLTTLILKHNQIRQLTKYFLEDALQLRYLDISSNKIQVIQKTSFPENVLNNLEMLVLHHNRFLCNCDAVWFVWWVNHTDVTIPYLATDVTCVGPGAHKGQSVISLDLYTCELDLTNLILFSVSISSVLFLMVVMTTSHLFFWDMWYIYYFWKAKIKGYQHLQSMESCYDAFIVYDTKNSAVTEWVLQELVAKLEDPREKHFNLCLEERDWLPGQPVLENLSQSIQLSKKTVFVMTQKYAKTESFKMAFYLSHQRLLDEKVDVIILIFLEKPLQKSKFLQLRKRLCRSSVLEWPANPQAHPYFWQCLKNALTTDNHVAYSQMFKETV

The target in data set [5] is T2, Toll-like receptor 7 (Homo sapiens, UniProt Q9NYK1).
T2 sequence (Q9NYK1 whole entry): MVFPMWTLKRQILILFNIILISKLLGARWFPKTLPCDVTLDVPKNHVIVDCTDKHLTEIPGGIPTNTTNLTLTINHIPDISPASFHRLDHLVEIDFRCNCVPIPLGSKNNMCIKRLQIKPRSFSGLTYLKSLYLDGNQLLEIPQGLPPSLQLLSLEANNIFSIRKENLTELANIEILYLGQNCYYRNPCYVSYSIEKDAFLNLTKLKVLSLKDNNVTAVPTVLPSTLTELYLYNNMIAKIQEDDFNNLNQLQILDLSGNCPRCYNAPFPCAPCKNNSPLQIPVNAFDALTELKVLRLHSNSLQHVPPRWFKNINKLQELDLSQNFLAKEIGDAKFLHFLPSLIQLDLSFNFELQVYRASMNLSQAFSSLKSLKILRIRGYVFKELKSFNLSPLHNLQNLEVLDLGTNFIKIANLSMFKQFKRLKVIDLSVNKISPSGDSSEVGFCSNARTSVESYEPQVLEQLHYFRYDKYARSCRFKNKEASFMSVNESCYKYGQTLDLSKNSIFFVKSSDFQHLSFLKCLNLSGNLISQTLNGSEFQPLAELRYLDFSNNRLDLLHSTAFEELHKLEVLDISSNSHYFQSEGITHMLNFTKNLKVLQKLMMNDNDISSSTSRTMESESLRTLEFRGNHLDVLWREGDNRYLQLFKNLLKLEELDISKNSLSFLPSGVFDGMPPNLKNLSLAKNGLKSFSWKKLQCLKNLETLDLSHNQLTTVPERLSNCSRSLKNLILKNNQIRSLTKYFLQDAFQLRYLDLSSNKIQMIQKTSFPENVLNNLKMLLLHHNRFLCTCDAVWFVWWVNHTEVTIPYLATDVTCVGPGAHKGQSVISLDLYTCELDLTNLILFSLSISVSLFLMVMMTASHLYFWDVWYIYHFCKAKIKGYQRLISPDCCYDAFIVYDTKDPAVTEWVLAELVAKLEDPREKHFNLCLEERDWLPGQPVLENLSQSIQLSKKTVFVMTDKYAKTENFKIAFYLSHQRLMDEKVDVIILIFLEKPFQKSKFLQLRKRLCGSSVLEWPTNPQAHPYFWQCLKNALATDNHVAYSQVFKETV

For orientation: IC50 means the concentration that gives 50% inhibition. Read a low IC50 as higher potency. As to `CCC[C@@H](CCO)Nc1nc(N)nc2cnn(Cc3cnc(CNC4CCOCC4)cc3OC)c12`, the Stability in data set [1] is reported as 87%; in data set [2], 81%. The IC50 in “in vitro” was more than 25 µM; in data set [3] it was more than 50 µM.

For the compound `COc1cc(CNC2CCOCC2)ccc1Cn1ncc2nc(N)nc(N[C@H](CCO)C3CC3)c21`, the Stability is reported as 87% in data set [1] and 9% in data set [2]. Moreover, the IC50 in the data set “in vitro” was more than 25 µM; in data set [3], more than 50 µM.

Turning to `CCC[C@@H](CCNC(C)=O)Nc1nc(N)nc2cnn(Cc3ccc(CNC4CCOCC4)cc3OC)c12`, the Stability in data set [1] worked out at 91%; in data set [2], 93%. For the same compound, the IC50 in “in vitro” is more than 25 µM.

With `CCCCNc1nc(N)nc2cnn(Cc3ccc(CN4CC5CC4CN5)cc3OC)c12` (configuration not stated), the Stability in data set [1] was determined as 10%; in data set [2], 90%.

As to `COc1cc(CNC2CCOCC2)ccc1Cn1ncc2nc(N)nc(N[C@@H](C)CCO)c21`, the Stability in data set [1] stood at 100%; in data set [2] it was 89%. For the same compound, the values for the IC50 (in “in vitro”; in data set [3]; against Toll-like receptor 7 [4]) were more than 25 µM, more than 50 µM and more than 5 µM, respectively.

With `CCC[C@@H](CCO)Nc1nc(N)nc2cnn(Cc3ncc(CNC4CCOCC4)cc3OC)c12`, the Stability in data set [1] came out at 93%; in data set [2] it was 78%. The values for the IC50 (in “in vitro”; in data set [3]) were more than 25 µM and 6 µM, respectively.

Consider `CCCCNc1nc(N)nc2cnn(Cc3ccc(Cn4ccnc4)cc3OC)c12`, for which the Stability in data set [1] was 26%; in data set [2], 1%.

By EC50 is commonly meant the concentration that produces a half-maximal response. Higher therefore signals weaker potency. The compound `CCCCNc1nc(N)nc2cnn(Cc3ccccc3OC)c12` came in with an EC50 on Toll-like receptor 7 [5] of 0.384 µM.

For `CCCCN(C)c1nc(N)nc2cnn(Cc3ccc(CNC4CCOCC4)cc3OC)c12`, the Stability in data set [1] is 11%; in data set [2], 57%. In addition, the IC50 in “in vitro” is more than 25 µM; in data set [3], more than 50 µM; against Toll-like receptor 7 [4], more than 5 µM.

With `CCCCNc1nc(N)nc2cnn(Cc3ccc(CNC4CCOCC4)cc3OC)c12`, the Stability is on record as 25% in data set [1] and 68% in data set [2]. Besides, inhibition in “in vitro” was half-maximal at 22 µM (IC50). This compound yielded an EC50 on Toll-like receptor 7 [4] of 0.453 µM.

Turning to `CCC[C@@H](CCO)Nc1nc(N)nc2cnn(Cc3ccc(CNC4CCOCC4)cc3F)c12`, the Stability in data set [1] was found to be 91%; in data set [2], 66%. For the same compound, the IC50 in the data set “in vitro” was more than 25 µM; in data set [3] it was more than 50 µM.

For the compound `CCCCNc1nc(N)nc2cnn(Cc3ccc(CN4CCCCC4)cc3OC)c12`, the Stability in data set [1] is listed as 2%; in data set [2], 33%. In addition, the EC50 on Toll-like receptor 7 [4] turned out to be 0.225 µM.

In turn, `CCCCNc1nc(N)nc2ncn(Cc3ccccc3)c12` came in with an EC50 on Toll-like receptor 7 [5] of more than 5 µM.

Regarding `CCCCNc1nc(N)nc2cnn(Cc3ccc(C(=O)NC4CCOCC4)cc3OC)c12`, the Stability in data set [1] came out at 62%; in data set [2], 68%.

Take `CCCCOc1nc(N)nc2cnn(Cc3ccc(CNC4CCOCC4)cc3OC)c12`: the results for the IC50 in “in vitro” and against Toll-like receptor 7 [4] were more than 25 µM and more than 5 µM, respectively.

On to `COc1cc(CNC2CCOCC2)ccc1Cn1ncc2nc(N)nc(N[C@H](CCO)C(C)C)c21`, for which the Stability in data set [1] was 63%; in data set [2], 80%. Besides, the IC50 was more than 25 µM in the data set “in vitro” and more than 50 µM in data set [3].

Regarding `CCCCNc1nc(N)nc2cnn(Cc3ccc(CN4CCOCC4)cc3OC)c12`, the values for the Stability in data set [1] and in data set [2] were 15% and 20%, respectively.

For `CCC[C@@H](CO)Nc1nc(N)nc2cnn(Cc3ccc(CNC4CCOCC4)cc3OC)c12`, the results for the Stability in data set [1] and in data set [2] were 77% and 90%, respectively. Further, the IC50 is more than 25 µM in “in vitro” and more than 50 µM in data set [3].

On to `CCCCNc1nc(N)nc2cnn(Cc3ccc(CNC4COC4)cc3OC)c12`, for which the figures for the Stability in data set [1] and in data set [2] were 46% and 55%, respectively.

For the compound `CCC[C@@H](CCO)Nc1nc(N)nc2cnn(Cc3ccc(CNC4CCOCC4)cc3OC(F)F)c12`, the values for the Stability in data set [1] and in data set [2] were 55% and 51%, respectively. The IC50 in the data set “in vitro” was 7 µM; in data set [3] it was 30.4 µM.

Take `CCC[C@@H](C)Nc1nc(N)nc2cnn(Cc3ccc(CNC4CCOCC4)cc3OC)c12`: the results for the Stability in data set [1] and in data set [2] were 30% and 70%, respectively. Further, the results for the IC50 (in “in vitro”; in data set [3]) were 24.7 µM and 30.4 µM, respectively.

Regarding `CCC[C@@H](CCO)Nc1nc(N)nc2cnn(Cc3ccc(CNC4CCOCC4)cc3)c12`, the Stability in data set [1] stood at 91%; in data set [2], 90%. Also, the IC50 in the data set “in vitro” was more than 25 µM; in data set [3], more than 50 µM. The compound also came in with an EC50 on Toll-like receptor 7 [4] of more than 5 µM.

For `CCCCNc1nc(N)nc2cnn(Cc3ccc(CN4CCNCC4)cc3OC)c12`, the Stability in data set [1] was 60%; in data set [2], 83%.

With `CCCCNc1nc(N)nc2cnn(Cc3ccc(CNCc4ccncc4)cc3OC)c12`, the Stability in data set [1] came to 3%; in data set [2], 1%.

On to `CCCCNc1nc(N)nc2cnn(Cc3ccc(CN4CC5(CNC5)C4)cc3OC)c12`, for which the Stability in data set [1] and in data set [2] was 100% throughout.

The compound `CCC[C@@H](CCO)Nc1nc(N)nc2cnn(Cc3ccc(CNC4CCOCC4)nc3OC)c12` returned an IC50 in “in vitro” of more than 25 µM.

Regarding `CCC[C@@H](CCO)Nc1nc(N)nc2cnn(Cc3ccc(CNC4CCOCC4)c4cccnc34)c12`, the Stability in data set [1] and in data set [2] was 56% throughout. In addition, the figures for the IC50 (in the data set “in vitro”; in data set [3]) were more than 25 µM and more than 50 µM, respectively.

Turning to `CC[C@@H](CCO)Nc1nc(N)nc2cnn(Cc3ccc(CNC4CCOCC4)cc3OC)c12`, the figures for the Stability in data set [1] and in data set [2] were 84% and 83%, respectively. Also, the IC50 is more than 25 µM in “in vitro”, more than 50 µM in data set [3] and 1.25 µM against Toll-like receptor 7 [4].
